Assay results reported in patent US11365410B2, “Production and monitoring of metabolites in cells” (President and Fellows of Harvard College, priority 2015, dated 2022).

Tests used:
[1] = biological target: T1, AcuR (Rhodobacter sphaeroides), regulator sequence SEQ ID NO: 9 (Cereibacter sphaeroides, UniProt Q3J6K8); assay: AcuR biosensor induction (sfGFP reporter, Hill fit); format: cell-based; settings: acrylate
T1 construct: expressed in transfected cells; host or cells: E. coli DH5alpha transformed with pJKR-H (high copy) or pJKR-L (low copy) plasmid
T1 sequence (Q3J6K8 1-219): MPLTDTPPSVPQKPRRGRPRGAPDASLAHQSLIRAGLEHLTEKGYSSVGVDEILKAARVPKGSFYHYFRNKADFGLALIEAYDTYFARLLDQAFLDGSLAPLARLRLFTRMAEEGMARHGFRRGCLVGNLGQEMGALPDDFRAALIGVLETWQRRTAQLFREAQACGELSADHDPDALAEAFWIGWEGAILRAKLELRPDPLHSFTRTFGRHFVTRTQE
Excerpt: Plasmids were constructed using Gibson isothermal assembly methods (see Gibson, D. G., Young, L., Chuang, R. Y., Venter, J. C., Hutchison, C. A., 3rd and Smith, H. O. (2009) Enzymatic assembly of DNA molecules up to several hundred kilobases. Nat Methods, 6, 343-345 incorporated herein by reference in its entirety) and transformed into DH5α electrocompetent cells (New England Biolabs, Ipswich Mass.). […] Each inducible system was implemented on high and low copy plasmids. High copy pJKR-H plasmids were constructed with the pUC origin and beta lactamase antibiotic resistance marker derived from pUC19 (New England Biolabs, Ipswich Mass.). Low copy pJKR-L plasmids were constructed in the same way, except that the pUC origin was replaced by the SC101 origin (including repA) from pSC101 obtained from American Type Culture Collection (ATCC #37032). […] In both these plasmids the antibiotic resistance gene and origin of replication were replaced with p15a-aadA and colA-kanR. Each enzyme was cloned downstream of the constitutive promoter P2 (see Mutalik, V. K., Guimaraes, J. C., Cambray, G., Lam, C., Christoffersen, M. J., Mai, Q. A., Tran, A. B., Paull, M., Keasling, J. D., Arkin, A. P. et al. (2013) Precise and reliable gene expression via standard transcription and translation initiation elements. Nat Methods, 10, 354-360 hereby incorporated by reference in its entirety) and g10 RBS to create pJKR-MIOX variants. These expression plasmids used the colA origin of replication and kanamycin resistance gene for maintenance. Sequences and plasmids are available on Addgene (plasmid numbers 62557-62570).
DH5α cells transformed with pJKR plasmids and maintained with carbenicillin were used in the induction assays. For each induction evaluation experiment, the cells were grown overnight to saturation before being diluted 1:100 into fresh LB media and incubated at 200 RPM and 37° C. […] Measurements were made on the same Biotek (Winooksi, Vt.) HT plate reader using the same settings: excitation 485/20, emission 528/20, 37° C. and fast shaking. Fluorescence and absorbance were measured every 10 minutes for 15 hours. Fluorescence was measured in arbitrary units (AFU) while optical density was determined by absorbance (OD). Normalized fluorescence was determined by dividing fluorescence by optical density for a given measurement. […]
The ratio of fluorescence to absorbance at 600 nm was used in order to compensate for changes in cell density over time and between experiments (AFU/OD). […] This transfer function is plotted on a log-log scale in FIG. 1A and FIG. 1B to capture the wide range of inducer concentrations and resulting fluorescence values. […]

E. coli DH5α cells = assay: Toxicity of inducer chemicals (growth)
Description: Growth rate was measured for each combination of chemical and concentration during the exponential phase of growth. Rates were normalized to the growth rate of cells without any added chemical and plotted as bar height. Concentration of each inducer is indicated in the table, corresponding to the bar chart by order and color. […] Inducer concentrations mirror the concentrations used in the induction experiments.
150 μl of cells were transferred into 96-well plates and the assayed chemical was immediately added in triplicate before further incubation at 600 RPM and 37° C.
Toxicity of the inducer chemicals was measured to help guide the choice of inducer concentration for biosensor applications. In applications where maximum protein production is the goal, toxicity will be less of a consideration. In contrast, sub-toxic induction is important for complex circuits that require the cell to maintain a healthy cell state.

acuR = assay: acuR-based 3HP biosensor induction (indirect, via acrylate); format: cell-based, Rhodobacter sphaeroides; settings: acrylate; no helper plasmid
Description: Metab Eng, 16, 130-139 hereby incorporated by reference in its entirety). All three reactions are useful for a prpR-based biosensor, but for the acuR-based biosensor, accumulation of acrylyl-CoA rather than propionyl-CoA is necessary. […] Accordingly, the domain responsible for conversion of acrylyl-CoA to propionyl-CoA was removed while preserving the activity of the other two domains. […] A 90-fold increase in fluorescence was obtained when the acuR-based biosensor was induced with 10 mM 3HP. […] Fluorescence remained at background levels for greater than 16 hours in the absence of pcs^Δ3 and ach (see FIG. 17).
Plasmids were constructed using Gibson isothermal assembly methods (see Gibson, D. G., Young, L., Chuang, R. Y., Venter, J. C., Hutchison, C. A., 3rd and Smith, H. O. (2009) Enzymatic assembly of DNA molecules up to several hundred kilobases. Nat Methods, 6, 343-345 hereby incorporated by reference in its entirety) and cloned into DH5α electrocompetent cells purchased from New England Biolabs. Biosynthesis of product molecules was carried out in either BL21 (DE3) or DH5α. The prpR-based 3HP biosensor was implemented as a two-plasmid system. The first plasmid is pPro24-GFP (Addgene plasmid #18880), which expresses GFPuv under the control of the methyl-citrate responsive transcription factor, prpR, on a pBR322 origin of replication providing β-lactam resistance. […]

[2] = biological target: T2, TtgR (Pseudomonas putida), regulator sequence SEQ ID NO: 14 (Pseudomonas putida, UniProt Q9AIU0); settings: no test described; cited from earlier work
T2 construct: expressed in transfected cells; host or cells: E. coli DH5alpha transformed with pJKR-H (high copy) or pJKR-L (low copy) plasmid

[3] = biological target: T2, TtgR (Pseudomonas putida), regulator sequence SEQ ID NO: 14; format: cell-based
Description: (§1) DH5α cells transformed with pJKR plasmids and maintained with carbenicillin were used in the induction assays. For each induction evaluation experiment, the cells were grown overnight to saturation before being diluted 1:100 into fresh LB media and incubated at 200 RPM and 37° C. After four hours, 150 μl of the log-phase cells were transferred to 96-well plates and stock inducer was added to achieve the desired range of induction concentrations. Three separate wells were inoculated and independently supplemented with the appropriate amount of inducing chemical for each level of induction. Measurements were made on the same Biotek (Winooksi, Vt.) HT plate reader using the same settings: excitation 485/20, emission 528/20, 37° C. and fast shaking. Fluorescence and absorbance were measured every 10 minutes for 15 hours. Fluorescence was measured in arbitrary units (AFU) while optical density was determined by absorbance (OD). Normalized fluorescence was determined by dividing fluorescence by optical density for a given measurement. Five independent wells containing control strains, transformed with pUC19, were included to provide a measurement of background autofluorescence.

[4] = system: muconate biosensor benM in BL21 cells; assay: Real-time muconate monitoring from pathway intermediates with benM biosensor; format: cell-based, E. coli; settings: strain with muconate biosynthesis pathway
Excerpt: A cell was genetically modified to include the muconate biosensor benM regulating production of a fluorescent molecule, and a LysR-type transcriptional regulator derived from Acinetobacter baylyi (see Craven, S. H., Ezezika, O. C., Haddad, S., Hall, R. A., Momany, C. and Neidle, E. L. (2009) Inducer responses of BenM, a LysR-type transcriptional regulator from Acinetobacter baylyi ADP1. Mol Microbiol, 72, 881-894 hereby incorporated by reference in its entirety). This setup is analogous to the previously described muconate artificial selection in which benM controls expression of an antibiotic resistance gene (see Raman, S., Rogers, J. K., Taylor, N. D. and Church, G. M. (2014) Evolution-guided optimization of biosynthetic pathways. Proceedings of the National Academy of Sciences of the United States of America, 111, 17803-17808 hereby incorporated by reference in its entirety. In order to achieve various muconate production rates for real-time observation, muconate was produced from a range of precursor molecules by implementing the biosynthetic pathway developed by Draths and Frost (see Niu, W., Draths, K. M. and Frost, J. W. (2002) Benzene-free synthesis of adipic acid. Biotechnology progress, 18, 201-211 and Draths, K. M. and Frost, J. W. (1994) Environmentally Compatible Synthesis of Adipic Acid from D-Glucose. […]
Muconate production monitoring was carried out in BL21 cells doubly transformed with pJKR-H-benM and the muconate production plasmid. […] After four hours, 150 μl of the log-phase cells were transferred to 96-well plates and monitored in the plate reader. After one hour, the specified concentration of pathway intermediate was added in triplicate and fluorescence monitoring was resumed. […] The quantity of muconate in the supernatant was determined by HPLC. […]

TtgR biosensor = TtgR biosensor induction with phenol and related compounds; format: cell-based, E. coli; settings: 0.1% phenol, 0.1% catechol, up to 0.4% benzene; fluorescence after 90 minutes
Description: All experiments were carried out in triplicate.
as §1

[5] = system: inducible promoter driving sfGFP in DH5α cells; assay: Hill-function fit of maximum GFP expression rate to inducer concentration; format: cell-based, E. coli
Description: The GFP expression rate was calculated at each time-point with the formula ΔGFP/OD. Scipy was used to perform a non-linear least-squares fit of the maximum GFP expression rate to the corresponding inducer concentration using the Hill function
Vmax is the maximum rate of GFP expression, Vmin is basal rate of GFP expression, I is the concentration of inducer, h is the hill coefficient and KL is the lumped half-maximal parameter described in Results. The variance of each parameter was determined from the least-squares covariance matrix.
A model of gene activation is applied as described herein to relate promoter activity to inducer concentration. Promoter activity is defined as the time derivative of fluorescence corrected for cell growth. […] Gene expression rates were fit to a Hill function adapted to account for both the maximum velocity of gene expression and the basal expression of the uninduced cells.

C=CC(=O)O [Acrylate, acrylate]
Hill Coefficient ([1]; high copy): 3.2 ± 0.3 | Max Expression Velocity ([1]; high copy): 910 ± 40 s⁻¹ | Hill Coefficient ([1]; low copy): 1.3 ± 0.1 | Max Expression Velocity ([1]; low copy): 150 ± 10 s⁻¹ | Toxicity in induction experiment (E. coli DH5α cells; 10 mM acrylate): high toxicity | Toxicity (E. coli DH5α cells; acrylate 5 mM and 10 mM): substantial toxicity | Response of acrylate biosensor without helper plasmid (acuR): respond to acrylate

O=C(N[C@H](CO)[C@H](O)c1ccc([N+](=O)[O-])cc1)C(Cl)Cl [Chloramphenicol, chloramphenicol]
Activation of TtgR by chloramphenicol [2]: activation

CC(C)c1ccc(C(=O)O)cc1 [Cumate, cumate]
Activation of TtgR by cumate ([3]; cross-reactivity panel, 20 μM): not activated

O=C(O)C1=CC(=O)[C@@H](O)[C@H](O)C1 [DHS, 3-dehydroshikimate]
fluorescence response of muconate biosensor [4]: rapid fluorescence response

Oc1ccccc1 [Phenol, phenol]
Activation of TtgR sensor ([3]; 0.1%, 90 min): only phenol activated the sensor

Oc1ccccc1O [catechol]
fluorescent response of TtgR biosensor (TtgR biosensor): did not activate the sensor | fluorescence response of muconate biosensor [4]: rapid fluorescence response

O=C(O)c1ccc(O)c(O)c1 [protocatechuate]
fluorescence response of muconate biosensor [4]: rapid fluorescence response

AraC
Basal Expression Velocity ([5]; High copy number plasmid): 20 ± 50 s⁻¹ | Basal Expression Velocity ([5]; Low copy number plasmid): 40 ± 30 s⁻¹
